Key:
in vivo = conditions: 3×Tg AD, mouse, ip, 50 mg/kg, AUC 0 to 48 h
Description: (§1) We next determined in the brain and plasma of 3×Tg AD mice, the HSP90 inhibitor levels associated with these pharmacodynamic effects (FIG. 43C).

[1] = mouse, in vivo
Description: as §1

oncogenic HSP90 [2] = assay: PU-FITC binding in primary leukemia samples, blasts relative to normal lymphocytes (flow cytometry); type: cell-based, human; conditions: blast crisis CML (bcCML) cells
oncogenic HSP90 [3] = assay: PU-FITC binding to EpCAM+ circulating tumor cells relative to leukocytes; type: cell-based, human; conditions: patient with HER2+ metastatic breast cancer
Method: FIG. 20. PU-H71-FITC2 accumulation in EpCAM+ Circulating Tumor Cells: PBMC's isolated from whole blood were pre-treated with PU-FITC or controls (PU-FITC9, DMSO, 1 μM/2×10^6 cells/ml, 4 hrs). Cells were then stained with CD45, CD14 and EpCAM antibodies. (A) Cells are gated to exclude dead cells. Viable cells are then gated to determine EpCAM+ vs CD45+ cells. Monocytes are excluded from the analysis by gating the CD45+ cells further as FSC vs. CD14. (B) Histogram plots showing the PU-FITC Median florescence intensity (MFI) of CD45+CD14− cells (blue) and EpCAM+ cells (Red). The drug accumulation in EpCAM+ cells is calculated as the ratio of MFI EpCAM+/MFI CD45+CD14− (circulating tumor cells/leukocytes) after subtracting the values of the DMSO and PU-FITC9 controls (used to control for non-specific and background binding). […]
All experimental blood sampling procedures were performed under the Institutional Review Board-approved protocols at Memorial Sloan Kettering Cancer Center. […] PBMC's are isolated on ficoll gradients, cells are counted and viability determined by trypan blue dye exclusion assay. […] Values are calculated as a ratio of the MFI of Tumor (EpCAM+CD45−CD14−): MFI of EpCAM−CD45+CD14− cells. […] This allows quantitation of the FITC fluorescence intensity in molecules of equivalent soluble fluorochrome (MESF units). […]

MOLM-13 cells = type: cell-based, human
AML cell lines = assay: cell killing and apoptosis in AML cell lines (Acridine Orange/Ethidium Bromide); type: cell-based, human; conditions: cultured HEL cells
Method: To evaluate the sensitivity spectrum of AML cell lines to HSP90 inhibitors, and to investigate a possible relationship between their genetic background and induction of apoptosis by HSP90 therapy, we made use of a varied cell panel. […]
A ten-fold, in MOLM-13 and M0-91, and two-fold, in Kasumi-1 and SKNO-1, increase in caspase-3,7 activation was observed as early as 24 h. Essentially no live cells were detected for the M0-91 cell line after 48 h of HSP90 inhibitor treatment. […]
Cells were treated for 24, 48 or 72 h with vehicle (DMSO) or inhibitors as indicated. Following staining with Acridine Orange and Ethidium Bromide (1:1 mix of 100 µg/ml), cells were visualized with a fluorescent microscope (Zeiss Axiovert 40 CFL) and counted. Percentage of apoptotic cells was determined from 200-300 cells counted in each group. The percentage of apoptotic cells was calculated as: % Apoptotic cells=(total number of cells with apoptotic nuclei/total number of cells counted)×100.

CC(C)(C)CNCCn1c(Sc2cc3c(cc2I)OCO3)nc2c(N)ncnc21 [PU-HZ151]
AUC(0-t) (in vivo; exposure of the cortex): 17.5 µM·h | AUC(0-t) (in vivo; exposure of the plasma): 7.1 µM·h | cortex AUC relative to plasma AUC [1]: 2.5 times

CC(C)N(CCCn1c(Sc2cc3c(cc2I)OCO3)nc2c(N)ncnc21)C(=S)Nc1ccc(-c2c3ccc(=O)cc-3oc3cc(O)ccc23)c(C(=O)O)c1 [PU-H71-FITC2]
binding relative to normal lymphocytes (oncogenic HSP90 [2]): over 4 fold | binding of circulating tumor cells relative to leukocytes (CD45+CD14−) (oncogenic HSP90 [3]): around 84 fold | viability of MOLM-13 cells (MOLM-13 cells): decrease the viability of MOLM-13 cells

O=c1[nH]c2ccccc2n1C1CCN(Cc2ccc(-c3nc4cc5[nH]cnc5cc4nc3-c3ccccc3)cc2)CC1 [AKTi]
cells committed to undergo apoptosis (AML cell lines): little to no effect

— patent US9555137B2, “Uses of labeled HSP90 inhibitors” (Sloan-Kettering Institute for Cancer Research, priority 2011, dated 2017)
